Among the test systems are SW-620; HL-60; SK-MEL-2; HCC 2998; SF-268; SK-MEL-28; OVCAR-3; MOLT-4; ACHN; SNB-75; SNB-19; KM12; A549; SK-OV-3; OVCAR-8; UACC-62; NCI-H522; OVCAR-4; EKVX; CAKI-1.
What all share (assay): DTP human tumour cell line panel, 48 h

From ChEMBL document CHEMBL1201862, “PubChem BioAssay data set” (2004) come the findings set out here.

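Results reflect a 48-hour exposure of cells in 96-well plates to compound at five concentrations. Abbreviation: GI50, concentration required for 50% inhibition of growth.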 The source made the active and inactive calls. Rule as the data show it: active = GI50 up to about 1.1 µM and inactive = higher. Bounds are passed on as bounds.

As to `O=C(O)C(SC(=S)c1ccc(C(=S)SC(C(=O)O)c2ccccc2)cc1)c1ccccc1` (centres undefined), the GI50 – broadly, the concentration giving 50% growth inhibition – is > 100 µM (inactive) with SW-620; > 100 µM (inactive) in the test on HL-60; > 100 µM (inactive) with SK-MEL-2; > 100 µM (inactive) in the test with HCC 2998; 97.3 µM (inactive) in the test on SF-268; 99.3 µM (inactive) in the test with SK-MEL-28. For the same compound, the GI50 with OVCAR-3 was 56.5 µM (inactive); with MOLT-4, > 100 µM (inactive); in the test with ACHN it was > 100 µM (inactive); with SNB-75, 35 µM (inactive); with SNB-19, 46.6 µM (inactive); with KM12 it was > 100 µM (inactive). The GI50 in the test on A549 is > 100 µM (inactive); in the test with SK-OV-3 it was > 100 µM (inactive); in the test with OVCAR-8 it was > 100 µM (inactive); in the test with UACC-62, 47.3 µM (inactive).
Consider `O=C(O)C1CC2C=CCC(C2)C1` (centres undefined), for which the GI50 was > 100 µM (inactive) with SW-620; > 100 µM (inactive) in the test on HL-60; 91.8 µM (inactive) with SK-MEL-2; > 100 µM (inactive) in the test on NCI-H522; > 100 µM (inactive) with SF-268; > 100 µM (inactive) in the test with SK-MEL-28. The GI50 in the test with OVCAR-3, in the test on OVCAR-4, with MOLT-4, with ACHN, with SNB-75 and in the test on SNB-19 was > 100 µM (inactive) each time. The GI50 in the test on KM12, in the test on A549, in the test with SK-OV-3, with EKVX, with OVCAR-8 and in the test with CAKI-1 was > 100 µM (inactive) each time. The GI50 in the test on UACC-62 was > 100 µM (inactive).
For the compound `Nc1ccc(S(=O)(=O)c2ccc(NCN3C(=O)NC(=O)C(=O)C3=O)cc2)cc1` [ALLANTODAPSONE], the GI50 in the test on SW-620, in the test on SK-MEL-2, in the test with NCI-H522, in the test with HCC 2998, in the test on SF-268 and in the test on SK-MEL-28 was > 100 µM (inactive) in each case. Besides, the GI50 in the test with OVCAR-3, in the test on OVCAR-4, with MOLT-4, with ACHN, in the test on SNB-19 and with KM12 was > 100 µM (inactive) throughout. The GI50 with A549, in the test on EKVX, in the test with OVCAR-8, in the test on CAKI-1 and with UACC-62 was > 100 µM (inactive) each time.
Consider `CCN1CCC(O)(c2ccc(O)cc2)C(C(=O)c2ccc(O)cc2)C1` (centres undefined), for which the GI50 is 2.95 µM (inactive) in the test with SW-620; 31.7 µM (inactive) in the test on HL-60; > 10 µM (inactive) in the test on HCC 2998; 39.2 µM (inactive) with SF-268; 17 µM (inactive) in the test on SK-MEL-28; 18.2 µM (inactive) in the test with OVCAR-3. For the same compound, the GI50 with OVCAR-4 is 27.7 µM (inactive); in the test with MOLT-4, 21.9 µM (inactive); in the test on ACHN, 19.8 µM (inactive); with SNB-75, 11.2 µM (inactive); in the test on SNB-19, > 100 µM (inactive); in the test with KM12, 22.2 µM (inactive). Moreover, the GI50 was > 100 µM (inactive) in the test with SK-OV-3, 28.2 µM (inactive) with EKVX, 40.6 µM (inactive) with OVCAR-8 and 16.4 µM (inactive) with UACC-62.
As for `CC[n+]1c(-c2ccccc2)c2cc(N)ccc2c2ccc(N)cc21` [HOMIDIUM BROMIDE], the GI50 is 3.67 µM (inactive) in the test on SW-620; 5.97 µM (inactive) in the test on HL-60; 2.08 µM (inactive) with SK-MEL-2; 4.79 µM (inactive) with HCC 2998; 2.05 µM (inactive) with SK-MEL-28; 3.07 µM (inactive) in the test with OVCAR-3. Moreover, the GI50 in the test on OVCAR-4 is 4.44 µM (inactive); in the test on MOLT-4, 2.36 µM (inactive); in the test on ACHN, 19 µM (inactive); with SNB-75, 0.0372 µM (active); with KM12, 2.49 µM (inactive); in the test on A549, 11.9 µM (inactive). Besides, the GI50 in the test on SK-OV-3 is 3.52 µM (inactive); with CAKI-1, 16.9 µM (inactive).
Consider `CSc1nc2c(nc(N)n2C2OCC(O)C(O)C2O)c(=O)[nH]1` (centres undefined), for which the GI50 in the test on SW-620, with HL-60, in the test with NCI-H522, with HCC 2998, in the test on SF-268 and with SK-MEL-28 was > 100 µM (inactive) in each case. The GI50 in the test with OVCAR-3, in the test with OVCAR-4, in the test with MOLT-4, in the test on ACHN, in the test with SNB-75 and with SNB-19 was > 100 µM (inactive) in each case. Also, the GI50 in the test on KM12, in the test with A549, with SK-OV-3, in the test with EKVX, with OVCAR-8 and with CAKI-1 was > 100 µM (inactive) throughout. In addition, in the test on UACC-62, the GI50 is > 100 µM (inactive).
As for `C[Si](C)(N[Si](C)(C)OCCc1ccccc1)OCCc1ccccc1`, the GI50 in the test on SW-620, in the test with HL-60, with SK-MEL-2, with HCC 2998, in the test on SK-MEL-28 and in the test with OVCAR-3 was > 100 µM (inactive) in each case. The GI50 in the test with OVCAR-4, in the test on ACHN, with SNB-75, with SNB-19, in the test with KM12 and in the test on SK-OV-3 was > 100 µM (inactive) in each case. Moreover, the GI50 in the test with EKVX, in the test with OVCAR-8, with CAKI-1 and in the test on UACC-62 was > 100 µM (inactive) in each case.
Consider `CN1C(=O)N(C)C2(CCN(CC(CC3OCCO3)c3ccc(F)cc3)CC2)C1=O` (centres undefined), for which the GI50 with HL-60, in the test with SK-MEL-2, in the test on NCI-H522, with SF-268, with SK-MEL-28 and in the test with OVCAR-3 was > 100 µM (inactive) throughout. Further, the GI50 in the test on OVCAR-4, in the test with MOLT-4, in the test on ACHN, in the test on SNB-75, in the test with SNB-19 and in the test with A549 was > 100 µM (inactive) each time. In addition, the GI50 in the test with SK-OV-3, with EKVX, in the test with OVCAR-8, with CAKI-1 and in the test with UACC-62 was > 100 µM (inactive) in each case.
Take `CC(C)=CCC/C(C)=C/CC/C(C)=C/C(O)c1ccccc1` (centres undefined): the GI50 in the test on SW-620 was 20.2 µM (inactive); in the test with HL-60 it was 22.5 µM (inactive); in the test with SK-MEL-2 it was 19.8 µM (inactive); with NCI-H522, > 10 µM (inactive); in the test with SF-268, 18.9 µM (inactive); with OVCAR-3, 20.1 µM (inactive). Further, the GI50 is > 10 µM (inactive) in the test with OVCAR-4; 17.4 µM (inactive) with ACHN; 20.2 µM (inactive) with SNB-19; 23.6 µM (inactive) with KM12; 21.8 µM (inactive) in the test on SK-OV-3; 20.1 µM (inactive) in the test on EKVX. Also, the GI50 in the test on OVCAR-8 is 20.6 µM (inactive); with CAKI-1, > 10 µM (inactive); in the test with UACC-62 it was 17 µM (inactive).
